This is an account of results in patent US4450160A, “1,2-Dihydropyrido[3,4-b]-pyrazines and method and intermediates for preparing same” (Southern Research Institute, priority 1982, dated 1984).

One series relates to KB cell culture. Particulars: abstract, Gatlinburg 1976; cited from earlier work.
The test system of a further series is leukemia L1210. To be noted: mouse, in vivo; cited from earlier work.
The subject of series [1] is lymphoid leukemia L1210 cells. Briefly: inhibition of proliferation of cultured lymphoid leukemia L1210 cells. The class given is cell-based. Particulars: Mus musculus, concentration that inhibits proliferation to 50% of control growth, 24 hours, (g) = average of 2 determinations, read-out: L1210 ID50.
Text: (b) Concentration of agent that inhibits proliferation of cultured lymphoi
leukemia L1210 cells to 50% control growth.
The test system of series [2] is Lymphocytic leukemia P388. Briefly: P388 lymphocytic leukemia, 10^6 tumor cell implant, i.p., % ILS. In kind it is in vivo, mice. An excerpt: (d) Lymphocytic leukemia p388. Geran, R. I., Greenberg, N. H., MacDonald,
M. M., Schulacker, A. M., Abott, B. J., Cancer Chemother. Rep., 1972, Par

In series [3] the test system is cultured lymphoid leukemia L1210 cells. The series can be described thus: Mitotic Index, fraction of cultured L1210 cells in mitoses (metaphase). In kind it is cell-based.
Another series relates to Saccharomyces cerevisiae. The series can be described thus: antifungal activity. The class given is cell-based. The method, then:
(§1) The 1,2-dihydropyrido[3,4-b]pyrazines at concentrations that prevented any increase in the cell number during a 24 hour period had little effect upon the synthesis of DNA, RNA, and protein by cultured L1210 cells during exposure for four hours. […] Exposure of cultured L1210 cells to the 1,2-dihydropyrido[3,4-b]pyrazines inhibited cell division as measured by the mitotic index (MI) (Table V), which is the fraction of the cell population that is made up of metaphase cells. […] For example, 5-amino-1,2-dihydro-3-phenylpyrido[3,4-b]pyrazin-7-ylcarbamate was active against Saccharomyces cerevisiae, Asperigillus niger, Penicillium italicum and Botrytis cinereae.

A further series relates to Botrytis cinereae. The series can be described thus: antifungal activity. In kind it is cell-based. The method, then:
as §1

Another series relates to Penicillium italicum. The series can be described thus: antifungal activity. In kind it is cell-based. The method, then:
as §1

For the next series, the system named is Asperigillus niger. Briefly: antifungal activity. In kind it is cell-based. As to the method:
as §1

For series [4], the system named is P388 cells that were resistant to vincristine. The series can be described thus: vincristine-resistant line of P388 in mice. In kind it is in vivo. An excerpt:
(h) Vincristineresistant line of P388. Wilkoff, L. J. and Dulmadge, E. A.,

Setting [5] is: Mus musculus, P388, ip, i.p. implant, days 1-5.
[6] abbreviates: Mus musculus, P388, ip, i.p. implant, days 1-5, 10 mg/kg.
Where [7] appears, read: Mus musculus, P388, ip, i.p. implant, days 1-9.
Where [8] appears, read: Mus musculus, P388, ip, 24 h, i.p. implant, day 1.

Broadly, the ILS is how much longer treated animals lived than controls. Low values mean little gain in survival, high ones much gain in survival.

pIC50: −log10 of the molar value. Where only a bound is given, the exact number is not on record here.

Take `CCOC(=O)Nc1cc2c(c(N)n1)N=C(CN(C)c1ccc(C(=O)OC)cc1)CN2`: the “cytotoxicity in the KB cell culture screen” value in the series with KB cell culture was “showed cytotoxicity”. In the series with leukemia L1210, the “activity against leukemia L1210 in mice” value is recorded as “activity against leukemia L1210 in mice”.
As for `CCOC(=O)Nc1cc2c(c(N)n1)N=C(c1ccc(C)cc1C)CN2` [2,4-(CH3)2 C6 H3], in [1], the pIC50 was 7.38. Further, in series [2] (Mus musculus, P388, ip, i.p. implant, days 1-5, 20 mg/kg (highest dose tested)), the ILS at 20 mg/kg was 23%. Besides, the “Mitotic Index 12h” value in [3] (0.1 μM) stood at 0.66.
For the compound `CCOC(=O)Nc1cc2c(c(N)n1)N=C(c1ccc(Cl)cc1Cl)CN2` [2,4-Cl2 C6 H3], the pIC50 in series [1] is 7.36. The same compound registered an ILS at 12.5 mg/kg in series [2] (setting [5]) of 49%. The “Mitotic Index 24h” value in [3] (0.3 μM) is on record as 0.20.
On to `CCOC(=O)Nc1cc2c(c(N)n1)N=C(c1ccc3ccccc3c1)CN2` [2-C10 H7], for which the pIC50 in series [1] was 8.22. Besides, the ILS at 5 mg/kg in series [2] (Mus musculus, P388, ip, i.p. implant, days 1-5, 5 mg/kg) is 53%. In series [2] (setting [6]), this compound yielded an ILS at 10 mg/kg of 66%. Moreover, in series [2] (days 1-5, 10 mg/kg), the 30th-day survivor entry is reported as “One”. Further, the “Mitotic Index 12h” value in [3] (0.03 μM) is 0.60.
As to `CCOC(=O)Nc1cc2c(c(N)n1)N=C(c1cc(OC)c(OC)c(OC)c1)CN2` [3,4,5-(CH3 O)3 C6 H2], in [3] (0.3 μM), the “Mitotic Index 12h” value is on record as 0.41.
On to `CCOC(=O)Nc1cc2c(c(N)n1)N=C(c1ccc(C)c(C)c1)CN2` [3,4-(CH3)2 C 6 H3], for which the pIC50 in series [1] is 6.86. Also, in series [2] (setting [5]), the ILS at 12.5 mg/kg worked out at 44%. Moreover, the “Mitotic Index 24h” value in [3] (0.3 μM) came to 0.16.
Turning to `CCOC(=O)Nc1cc2c(c(N)n1)N=C(c1ccc(Cl)c(Cl)c1)CN2` [3,4-Cl2 C6 H3], the pIC50 in [1] is 7.74. The ILS at 10 mg/kg in series [2] (setting [6]) amounted to 58%. The “Mitotic Index 12h” value worked out at 0.69 in series [3] (0.01 μM) and 0.53 in series [3] (0.03 μM).
Take `CCOC(=O)Nc1cc2c(c(N)n1)N=C(c1cccc(OC)c1)CN2` [3-CH3 OC6 H4]: the pIC50 in series [1] was 8.91. Further, the “Mitotic Index 12h” value in series [3] (0.003 μM) is given as 0.56.
Regarding `CCOC(=O)Nc1cc2c(c(N)n1)N=C(c1ccc(C(F)(F)F)cc1)CN2` [4-CF3 C6 H4, ethyl 5-amino-1,2-dihydro-3-[4'-(trifluoromethyl)phenyl]pyrido[3,4-b]pyrazin-7-ylcarbamate], the pIC50 in series [1] is 6.82. Besides, the ILS at 90 mg/kg in series [2] (Mus musculus, P388, ip, 24 h, i.p. implant, day 1, 90 mg/kg (highest dose tested)) worked out at 0%. Further, the ILS at 30 mg/kg in series [2] (Mus musculus, P388, ip, i.p. implant, days 1,5,9, 30 mg/kg (highest dose tested)) was determined as 0%. In addition, the increase in lifespan (ILS) at 50 mg/kg in series [2] (setting [7]) stood at 17%. For the same compound, the “Mitotic Index 24h” value in series [3] (0.3 μM) is on record as 0.01.
Consider `CCOC(=O)Nc1cc2c(c(N)n1)N=C(c1ccc(C)cc1)CN2` [4-CH3 C6 H4], for which the pIC50 in [1] is 7.62. Further, the ILS at 12 mg/kg in series [2] (Mus musculus, P388, ip, i.p. implant, days 1-5, 12 mg/kg) was 30%. In addition, in [3] (0.3 μM), the “Mitotic Index 24h” value is 0.22.
As for `CCOC(=O)Nc1cc2c(c(N)n1)N=C(c1ccc(OC)cc1)CN2` [4-CH3 OC6 H4], the pIC50 in series [1] is 8.39. The ILS at 25 mg/kg was found to be 50% in series [2] (setting [8]) and 63% in series [2] (Mus musculus, P388, ip, i.p. implant, days 1,5,9). In series [2] (setting [7]), this compound registered an ILS at 3 mg/kg of 35%. In addition, in [3] (0.3 μM), the “Mitotic Index 24h” value is 0.27.
As for `CCOC(=O)Nc1cc2c(c(N)n1)N=C(c1ccc(F)cc1)CN2` [4-FC6 H4], the pIC50 in series [1] is 8.17. The compound also yielded an increase in lifespan (ILS) at 3 mg/kg in [2] (setting [5]) of 49%. The “Mitotic Index 12h” value in series [3] (0.01 μM) is 0.47.
On to `CCOC(=O)Nc1cc2c(c(N)n1)N=C(c1ccc(N)cc1)CN2` [4-H2 NC6 H4], for which, in series [1], the pIC50 was 7.64. Besides, the increase in lifespan (ILS) at 50 mg/kg in series [2] (setting [8]) turned out to be 35%. Further, the “Mitotic Index 24h” value in series [3] (0.3 μM) worked out at 0.19.
On to `CCOC(=O)Nc1cc2c(c(N)n1)N=C(c1ccccc1)CN2` [C6 H5, Ethyl 5-Amino-1,2-dihydro-3-phenylpyrido(3,4-b)pyrazin-7-ylcarbamate], for which the antifungal activity result with Saccharomyces cerevisiae, in the series with Botrytis cinereae, in the series with Penicillium italicum and in the series on Asperigillus niger was “active” in each case. Further, in series [1], the pIC50 was 8.33. In [2] (Mus musculus, P388, ip, 24 h, i.p. implant, day 1, average of 2 determinations), the ILS at 12.5 mg/kg is 55%. In series [2] (Mus musculus, P388, ip, i.p. implant, days 1,5,9, 4.5 mg/kg), this compound registered an ILS at 4.5 mg/kg of 42%. The same compound registered an ILS at 2 mg/kg in series [2] (Mus musculus, P388, ip, i.p. implant, days 1-9, 2 mg/kg) of 51%. Besides, the “activity against P388 cells resistant to vincristine (in words)” value in [4] (in mice) is reported as “active in mice against P388 cells that were resistant to vincristine”. In addition, the “P388 % ILS” value in series [4] (vincristine-resistant line of P388, day 1, 12 mg/kg) turned out to be 50%. In addition, the “Mitotic Index 12h” value in series [3] (0.03 μM) was found to be 0.65. Moreover, the “Mitotic Index 24h” value in [3] (0.3 μM) amounted to 0.54.
Consider `CCOC(=O)Nc1cc2c(c(N)n1)N=C(c1ccccc1)CN2C` [C6 H5, R3 = CH3], for which the pIC50 in series [1] is 6.80. In series [2] (Mus musculus, P388, ip, 24 h, i.p. implant, day 1, 100 mg/kg), this compound registered an ILS at 100 mg/kg of 12%. The “Mitotic Index 12h” value in series [3] (0.3 μM) is recorded as 0.68.
In the case of `CCOC(=O)Nc1cc2c(c(N)n1)N=C(c1ccccc1)C(C)N2` (centres unmarked) [C6 H5, R4 = CH3], the pIC50 in [1] is 9.29. The “Mitotic Index 12h” value in series [3] (0.003 μM) was determined as 0.69.
Regarding `COC(=O)Nc1nc2ccc(C(=O)c3cccs3)cc2[nH]1` [Nocodazole, reference compound], the pIC50 in [1] was 7.57. In addition, the “Mitotic Index 24h” value in series [3] (0.3 μM) stood at 0.19.
Take `CC[C@]1(O)C[C@H]2CN(CCc3c([nH]c4ccccc34)[C@@](C(=O)OC)(c3cc4c(cc3OC)N(C=O)[C@H]3[C@@](O)(C(=O)OC)[C@H](OC(C)=O)[C@]5(CC)C=CCN6CC[C@]43[C@@H]65)C2)C1` [Vincristine, reference compound]: in series [1], the pIC50 is more than 9.00. In addition, in series [2] (Mus musculus, P388, ip, 24 h, i.p. implant, day 1, 2.7 mg/kg), the increase in lifespan (ILS) at 2.7 mg/kg turned out to be 100%. For the same compound, the ILS at 1.3 mg/kg in series [2] (Mus musculus, P388, ip, i.p. implant, days 1,5,9, 1.3 mg/kg) came to 181%. This compound registered an ILS at 0.33 mg/kg in series [2] (Mus musculus, P388, ip, i.p. implant, days 1-9, 0.33 mg/kg) of 145%. Further, the 40th-day survivors entry in [2] (day 1, 2.7 mg/kg) was “Two”; in series [2] (days 1,5,9, 1.3 mg/kg), “Three”; in series [2] (days 1-9, 0.33 mg/kg) it was “Three”.
